Results taken from ChEMBL document CHEMBL4118134, “Design, synthesis, and evaluation of novel N-1 fluoroquinolone derivatives: Probing for binding contact with the active site tyrosine of gyrase” (Bioorg Med Chem Lett, 2018).
Calls of active or inactive are those of the source. The calls are words filed in the database; no cut-off is given here.

Columns and labels:
[1] = target: T1, DNA gyrase (Escherichia coli) (UniProt P0AES6+P0AES4); assay: Inhibition of Escherichia coli DNA gyrase subunit GyrA/GyrB supercoiling activity at 10 uM using relaxed pBR322 DNA incubated for 15 mins by ethidium bromide staining based gel electrophoresis method; format: protein-complex assay
[2] = target: T1, DNA gyrase (Escherichia coli); assay: Poison activity at Escherichia coli DNA gyrase assessed as increase in linear DNA generation at 10 uM using supercoiled pBR322 DNA incubated for 10 mins by ethidium bromide staining based gel electrophoresis based DNA cleavage assay relative to untreated control; format: protein-complex assay
[3] = Inhibition of human topoisomerase 2 assessed as reduction in decatenatation of kinetoplast DNA incubated for 15 mins by ethidium bromide staining based gel electrophoresis method
[4] = organism: Homo sapiens; assay: Poison activity at human topoisomerase 2 assessed as increase in linear DNA generation at 5 to 10 uM incubated for 10 mins by ethidium bromide staining based gel electrophoresis based DNA cleavage assay relative to untreated control
[5] = target: DNA gyrase (Escherichia coli, UniProt P0AES4+P0AES6); assay: Inhibition of Escherichia coli DNA gyrase subunit GyrA/GyrB supercoiling activity using relaxed pBR322 DNA incubated for 15 mins by ethidium bromide staining based gel electrophoresis method; format: protein-complex assay
[6] = organism: Homo sapiens; assay: Inhibition of human topoisomerase 2 assessed as reduction in decatenatation of kinetoplast DNA at 200 uM incubated for 15 mins by ethidium bromide staining based gel electrophoresis method

Structure (SMILES) | inhibition [1] [%] | fold change (FC) [2] | IC50 [3] [µM] | Activity [4] [%] | IC50 [5] [µM] | inhibition [6]
CCN1CCN(c2c(F)cc3c(=O)c(C(=O)O)cn(Cc4ccccc4)c3c2OC)CC1 | 23.3 | < 2 |  |  |  | 
COc1c(N2CC[C@@H](CN)C2)c(F)cc2c(=O)c(C(=O)O)cn(CCCc3ccccc3)c12 | 27.1 | < 2 |  |  |  | 
COc1ccc(Cn2cc(C(=O)O)c(=O)c3cc(F)c(N4CC[C@@H](CN)C4)c(OC)c32)cc1 | 25.2 | < 2 |  |  |  | 
CCN1CCN(c2c(F)cc3c(=O)c(C(=O)O)cn(CCCCCN)c3c2OC)CC1 | < 5 | < 2 |  |  |  | 
COc1c(N2CC[C@@H](CN)C2)c(F)cc2c(=O)c(C(=O)O)cn(CCCCCN3C(=O)c4ccccc4C3=O)c12 | 20.2 | < 2 |  |  |  | 
COc1c(N2CC[C@@H](CN)C2)c(F)cc2c(=O)c(C(=O)O)cn(CCCCN3C(=O)c4ccccc4C3=O)c12 | 20.4 | < 2 |  |  |  | 
COc1c(N2CC[C@@H](CN)C2)c(F)cc2c(=O)c(C(=O)O)cn(CCCN)c12 | < 5 | < 2 |  |  |  | 
COc1c(N2CC[C@@H](CN)C2)c(F)cc2c(=O)c(C(=O)O)cn(Cc3ccccc3)c12 | 37.7 | < 2 |  |  |  | 
COc1cc([C@@H]2c3cc4c(cc3[C@@H](O[C@@H]3O[C@@H]5CO[C@@H](C)O[C@H]5[C@H](O)[C@H]3O)[C@H]3COC(=O)[C@H]23)OCO4)cc(OC)c1O [ETOPOSIDE] |  |  | 60 | 400 to 800 |  | 
COc1c(N2CC[C@@H](CN)C2)c(F)cc2c(=O)c(C(=O)O)cn(CCCCCN)c12 | 12.3 | < 2 |  |  |  | 
COc1c(N2CC[C@@H](CN)C2)c(F)cc2c(=O)c(C(=O)O)cn(CCc3ccccc3)c12 | 11 | < 2 |  |  |  | 
COc1c(N2CC[C@@H](CN)C2)c(F)cc2c(=O)c(C(=O)O)cn(CCCN3C(=O)c4ccccc4C3=O)c12 | < 5 | < 2 |  |  |  | 
COc1c(N2CC[C@@H](CN)C2)c(F)cc2c1N(C1CC1)CC(C(=O)O)C2=O (stereo not given in full) | > 96 | > 4 |  |  | 0.12 | inactive
COc1c(N2CC[C@@H](CN)C2)c(F)cc2c(=O)c(C(=O)O)cn(CCCCN)c12 | 25.7 | < 2 |  |  |  | 
